Reference: patent US20240116985A1, “STAPLED PEPTIDES AND METHODS THEREOF” (priority 2020, published 2024)
pIC50: −log10 of the molar value.

Target: T1, full-length beta-Catenin (Uniprot ID P35222) (Homo sapiens, UniProt P35222)
T1 construct: 10 nM full-length beta-Catenin (Uniprot ID P35222)
T1 sequence (P35222 1-781): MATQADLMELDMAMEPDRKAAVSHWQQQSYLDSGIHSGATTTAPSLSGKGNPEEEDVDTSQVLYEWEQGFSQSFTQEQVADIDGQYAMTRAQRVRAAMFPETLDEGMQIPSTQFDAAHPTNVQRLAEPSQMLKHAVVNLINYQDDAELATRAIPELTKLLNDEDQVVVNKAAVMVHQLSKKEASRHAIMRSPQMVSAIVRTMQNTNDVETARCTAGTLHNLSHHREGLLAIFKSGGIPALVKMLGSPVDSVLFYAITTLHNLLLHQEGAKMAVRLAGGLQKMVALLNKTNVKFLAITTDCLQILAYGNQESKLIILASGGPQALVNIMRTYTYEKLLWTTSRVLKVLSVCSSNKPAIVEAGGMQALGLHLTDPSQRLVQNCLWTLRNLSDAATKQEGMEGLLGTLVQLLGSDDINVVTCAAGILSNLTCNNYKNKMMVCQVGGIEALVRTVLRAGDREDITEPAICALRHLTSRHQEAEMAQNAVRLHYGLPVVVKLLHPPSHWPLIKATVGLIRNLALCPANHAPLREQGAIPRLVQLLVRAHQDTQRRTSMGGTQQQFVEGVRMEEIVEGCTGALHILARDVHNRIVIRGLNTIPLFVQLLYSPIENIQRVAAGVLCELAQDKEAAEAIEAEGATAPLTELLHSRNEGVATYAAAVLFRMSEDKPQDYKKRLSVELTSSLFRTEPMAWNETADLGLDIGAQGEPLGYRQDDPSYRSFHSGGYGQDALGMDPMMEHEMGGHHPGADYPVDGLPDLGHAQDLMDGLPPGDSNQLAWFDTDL
Assay: Fluorescence polarization IC50 (beta-catenin / 5FAM-TCF4 10-53 competition)
Assay type: binding
Conditions: fluorescence polarization; read-out: beta-Catenin FP IC50

Row | SMILES | pIC50
1 | CC(=O)N1CCC[C@]12CC=CCCCCC1(CCCCC=CCCCOC(=O)N3CC[C@@](C(=O)N[C@@H](Cc4ccccc4C(F)(F)F)C(=O)N[C@@H](Cc4csc5ccccc45)C(=O)N[C@@H](C)C(N)=O)(C3)NC(=O)[C@H](CC(C)C)NC(=O)[C@H](Cc3ccccc3)NC(=O)[C@H](C)NC(=O)[C@H](CCC(N)=O)NC(=O)[C@H](Cc3cccc(C(=O)O)c3)NC(=O)[C@H](CC(=O)O)NC1=O)NC(=O)[C@H](CC(C)(C)C)NC(=O)[C@H](CC(=O)O)NC2=O (stereo partly drawn) [I-2516, Ac-PL3-Asp-Npg-B6-Asp-3COOHF-Gln-Ala-Phe-Leu-PyrS2-2F3MeF-BztA-Ala-NH2] | 6.68
2 | CC(=O)N1CCC[C@]12CC=CCCCC1(CCCC=CCCCOC(=O)N3CC[C@@](C(=O)N[C@@H](Cc4ccccc4)C(=O)N[C@@H](Cc4csc5ccccc45)C(=O)N[C@@H](CC(=O)N4CCOCC4)C(N)=O)(C3)NC(=O)[C@H](CC(C)C)NC(=O)[C@H](Cc3ccccc3)NC(=O)[C@H](C)NC(=O)[C@H](CCCCNS(C)(=O)=O)NC(=O)[C@H](CCC(N)=O)NC(=O)[C@H](CC(=O)O)NC1=O)NC(=O)[C@H](CC1CCCCC1)NC(=O)[C@H](CC(N)=O)NC2=O (stereo partly drawn) [I-2524, Ac-PL3-Asn-Cha-B5-Asp-Gln-[MeSO2]Lys-Ala-Phe-Leu-PyrS2-Phe-BztA-MorphAsn-NH2] | 6.22
3 | CC(=O)N1CCC[C@]12CC=CCCCC1(CCCC=CCCCOC(=O)N3CC[C@@](C(=O)N[C@@H](Cc4ccccc4)C(=O)N[C@@H](Cc4csc5ccccc45)C(=O)N[C@@H](CC(=O)N4CCOCC4)C(N)=O)(C3)NC(=O)[C@H](CC(C)C)NC(=O)[C@H](Cc3ccccc3)NC(=O)[C@H](C)NC(=O)[C@H](CCCCNC(=O)C(F)(F)F)NC(=O)[C@H](CCC(N)=O)NC(=O)[C@H](CC(=O)O)NC1=O)NC(=O)[C@H](CC1CCCCC1)NC(=O)[C@H](CC(N)=O)NC2=O (stereo partly drawn) [I-2525, Ac-PL3-Asn-Cha-B5-Asp-Gln-[CF3CO]Lys-Ala-Phe-Leu-PyrS2-Phe-BztA-MorphAsn-NH2] | 5.37
4 | CC(=O)N1CCC[C@]12CC=CCCCC1(CCCC=CCCCOC(=O)N3CC[C@@](C(=O)N[C@@H](Cc4ccccc4)C(=O)N[C@@H](Cc4csc5ccccc45)C(=O)N[C@@H](CC(=O)N4CCOCC4)C(N)=O)(C3)NC(=O)[C@H](CC(C)C)NC(=O)[C@H](Cc3ccccc3)NC(=O)[C@H](C)NC(=O)[C@H](CCCCNC(=O)CCN(C)C)NC(=O)[C@H](CCC(N)=O)NC(=O)[C@H](CC(=O)O)NC1=O)NC(=O)[C@H](CC1CCCCC1)NC(=O)[C@H](CC(N)=O)NC2=O (stereo partly drawn) [I-2528, Ac-PL3-Asn-Cha-B5-Asp-Gln-[Me2Npr]Lys-Ala-Phe-Leu-PyrS2-Phe-BztA-MorphAsn-NH2] | 6.21
5 | CC(=O)N1Cc2cccc(c2)OCC=CCCCC2(CCCC=CCCCOC(=O)N3CC[C@@](C(=O)N[C@@H](Cc4ccsc4)C(=O)N[C@@H](Cc4csc5ccccc45)C(=O)N[C@@H](CCC(N)=O)C(N)=O)(C3)NC(=O)[C@H](CC(C)C)NC(=O)[C@H](Cc3ccccc3)NC(=O)[C@H](C)NC(=O)[C@H](C)NC(=O)[C@H](CN(CC(=O)O)CC(F)(F)F)NC(=O)[C@H](CC(=O)O)NC2=O)NC(=O)[C@H](CC(C)(C)C)NC(=O)[C@@H]1CC(=O)O (stereo partly drawn) [I-2550, Bn3OAllyl-AcAsp-Npg-B5-Asp-TfeGA-Ala-Ala-Phe-Leu-PyrS2-3Thi-BztA-Gln-NH2] | 5.76
6 | CCCC[C@@H]1NC(=O)[C@H](Cc2ccccc2)NC(=O)[C@H](C)NC(=O)C(C)(C)NC(=O)[C@H](Cc2cccc(C(=O)O)c2)NC(=O)[C@H](CC(=O)O)NC(=O)C2(CCCC=CCCCOC(=O)N3CC[C@@](C(=O)N[C@@H](Cc4ccsc4)C(=O)N[C@@H](Cc4csc5ccccc45)C(=O)N[C@@H](CCC(=O)N4CCC(N5CCCCC5)CC4)C(N)=O)(C3)NC1=O)CCCC=CC[C@]1(CCCN1C(C)=O)C(=O)N[C@@H](CC(=O)O)C(=O)N[C@@H](CC(C)(C)C)C(=O)N2 (stereo partly drawn) [I-2555, Ac-PL3-Asp-Npg-B5-Asp-3COOHF-Aib-Ala-Phe-nLeu-PyrS2-3Thi-BztA-[4Pippip]GlnR-NH2] | 7.96
7 | CC(=O)N[C@]1(C)CCCC=CCCCC2(CCCC=CCCCOC(=O)N3CC[C@@](C(=O)N[C@@H](Cc4ccccc4C(F)(F)F)C(=O)N[C@@H](Cc4csc5ccccc45)C(=O)N[C@@H](CCC(N)=O)C(N)=O)(C3)NC(=O)[C@H](CC(C)C)NC(=O)[C@H](Cc3ccccc3)NC(=O)[C@H](C)NC(=O)[C@H](C)NC(=O)[C@H](Cc3cccc(C(=O)O)c3)NC(=O)[C@H](CC(=O)O)NC2=O)NC(=O)[C@H](CC(C)(C)C)NC(=O)[C@H](CC(=O)O)NC1=O (stereo partly drawn) [I-2564, Ac-R5-Asp-Npg-B5-Asp-3COOHF-Ala-Ala-Phe-Leu-PyrS2-2F3MeF-BztA-Gln-NH2] | 6.59
8 | CC(=O)N1CCC[C@H]1C(=O)N[C@]1(C)CCCC=CCCCC2(CCCC=CCCCOC(=O)N3CC[C@@](C(=O)N[C@@H](Cc4ccccc4C(F)(F)F)C(=O)N[C@@H](Cc4csc5ccccc45)C(=O)N[C@@H](CCC(N)=O)C(N)=O)(C3)NC(=O)[C@H](CC(C)C)NC(=O)[C@H](Cc3ccccc3)NC(=O)[C@H](C)NC(=O)[C@H](C)NC(=O)[C@H](Cc3cccc(C(=O)O)c3)NC(=O)[C@H](CC(=O)O)NC2=O)NC(=O)[C@H](CC(C)(C)C)NC(=O)[C@H](CC(=O)O)NC1=O (stereo partly drawn) [I-2567, Ac-Pro-R5-Asp-Npg-B5-Asp-3COOHF-Ala-Ala-Phe-Leu-PyrS2-2F3MeF-BztA-Gln-NH2] | 6.28

The remaining molecules from weak to strong by pIC50, led by results:

Row | pIC50 | SMILES
9 | 6.74 | CC(=O)N1CCC[C@H]1C(=O)N[C@]1(C)CC=CCCCC2(CCCC=CCCCOC(=O)N3CC[C@@](C(=O)N[C@@H](Cc4ccccc4C(F)(F)F)C(=O)N[C@@H](Cc4csc5ccccc45)C(=O)N[C@@H](CCC(N)=O)C(N)=O)(C3)NC(=O)[C@H](CC(C)C)NC(=O)[C@H](Cc3ccccc3)NC(=O)[C@H](C)NC(=O)[C@H](C)NC(=O)[C@H](Cc3cccc(C(=O)O)c3)NC(=O)[C@H](CC(=O)O)NC2=O)NC(=O)[C@H](CC(C)(C)C)NC(=O)[C@H](CC(=O)O)NC1=O (stereo partly drawn) [I-2566, Ac-Pro-R3-Asp-Npg-B5-Asp-3COOHF-Ala-Ala-Phe-Leu-PyrS2-2F3MeF-BztA-Gln-NH2]
10 | 6.75 | CCCC[C@@H]1NC(=O)[C@H](CC(=O)O)NC(=O)[C@]2(CCCCCCC3(CCCCCCCCOC(=O)N4CC[C@@](C(=O)N[C@@H](Cc5ccccc5C(F)(F)F)C(=O)N[C@@H](Cc5csc6ccccc56)C(=O)N[C@@H](CCC(N)=O)C(N)=O)(C4)NC(=O)[C@H](CC(C)C)NC(=O)[C@H](Cc4ccccc4)NC(=O)[C@H](C)NC(=O)[C@H](C)NC(=O)[C@H](Cc4cccc(C(=O)O)c4)NC(=O)[C@H](CC(=O)O)NC3=O)NC1=O)CCCN2C(C)=O (stereo partly drawn) [I-2531, Ac-PL3-Asp-nLeu-B5-Asp-3COOHF-Ala-Ala-Phe-Leu-PyrS2-2F3MeF-BztA-Gln-NH2]
11 | 6.82 | CC(C)C[C@@H]1NC(=O)[C@H](Cc2ccccc2)NC(=O)[C@H](C)NC(=O)[C@H](C)NC(=O)[C@H](Cc2cccc(C(=O)O)c2)NC(=O)[C@H](CC(=O)O)NC(=O)C2(CCCCCCCCOC(=O)N3CC[C@@](C(=O)N[C@@H](Cc4ccccc4C(F)(F)F)C(=O)N[C@@H](Cc4csc5ccccc45)C(=O)N[C@@H](CCC(N)=O)C(N)=O)(C3)NC1=O)CCCCCC[C@@]13CCCN1C(=O)CCCCCC[C@H](NC(=O)[C@H](CC(=O)O)NC3=O)C(=O)N2 (stereo partly drawn) [I-2529, 5hexenyl-PL3-Asp-AllylGly-B5-Asp-3COOHF-Ala-Ala-Phe-Leu-PyrS2-2F3MeF-BztA-Gln-NH2]
12 | 6.99 | CC(C)C[C@@H]1NC(=O)[C@H](Cc2ccccc2)NC(=O)[C@H](C)NC(=O)[C@H](C)NC(=O)[C@H](Cc2cccc(C(=O)O)c2)NC(=O)[C@H](CC(=O)O)NC(=O)C2(CCCCCCCCOC(=O)N3CC[C@@](C(=O)N[C@@H](Cc4ccccc4C(F)(F)F)C(=O)N[C@@H](Cc4csc5ccccc45)C(=O)N[C@@H](CCC(N)=O)C(N)=O)(C3)NC1=O)CCCCCC[C@@]13CCCN1C(=O)CCCCC[C@H](NC(=O)[C@H](CC(=O)O)NC3=O)C(=O)N2 (stereo partly drawn) [I-2530, 4pentenyl-PL3-Asp-AllylGly-B5-Asp-3COOHF-Ala-Ala-Phe-Leu-PyrS2-2F3MeF-BztA-Gln-NH2]
13 | 7.03 | CC(=O)N1CCC[C@]12CC=CCCCCC1(CCCCC=CCCOC(=O)N3CC[C@@](C(=O)N[C@@H](Cc4ccccc4C(F)(F)F)C(=O)N[C@@H](Cc4csc5ccccc45)C(=O)N[C@@H](C)C(N)=O)(C3)NC(=O)[C@H](CC(C)C)NC(=O)[C@H](Cc3ccccc3)NC(=O)[C@H](C)NC(=O)[C@H](CCC(N)=O)NC(=O)[C@H](Cc3cccc(C(=O)O)c3)NC(=O)[C@H](CC(=O)O)NC1=O)NC(=O)[C@H](CC(C)(C)C)NC(=O)[C@H](CC(=O)O)NC2=O (stereo partly drawn) [I-2519, Ac-PL3-Asp-Npg-B6-Asp-3COOHF-Gln-Ala-Phe-Leu-PyrS1-2F3MeF-BztA-Ala-NH2]
14 | 7.13 | CC(=O)N1CCC[C@]12CC=CCCCCC1(CCCCC=CCCCOC(=O)N3CC[C@@](C(=O)N[C@@H](Cc4ccccc4C(F)(F)F)C(=O)N[C@@H](Cc4csc5ccccc45)C(=O)N[C@@H](CCC(N)=O)C(N)=O)(C3)NC(=O)[C@H](CC(C)C)NC(=O)[C@H](Cc3ccccc3)NC(=O)[C@H](C)NC(=O)[C@H](C)NC(=O)[C@H](Cc3cccc(C(=O)O)c3)NC(=O)[C@H](CC(=O)O)NC1=O)NC(=O)[C@H](CC(C)(C)C)NC(=O)[C@H](CC(=O)O)NC2=O (stereo partly drawn) [I-2514, Ac-PL3-Asp-Npg-B6-Asp-3COOHF-Ala-Ala-Phe-Leu-PyrS2-2F3MeF-BztA-Gln-NH2]
